“Also recorded” adds a separate entry of the source. Each block holds one compound with its values, some of them ahead of it.
Legend:
[1] = test system: SK1; conditions: known compounds, Figure 1; cited from earlier work
[2] = test system: SK2; conditions: Figure 1, cited from earlier work; for IC50: known compounds
[3] = test system: HT29 cells; assay: MTT cell viability assay; type: cell-based, human; conditions: HT29, 20 and 40 µM, 24 h, Figure 2A
Description: (§1) The HT29 and HCT116 cells (human colon cancer), AGS (human gastric cancer), and MIA PaCa-2 cells (human pancreatic cancer) were purchased from Korean Cell Line Bank (Seoul, Korea). Cancer cells were maintained in RPMI (HT29 and AGS) and DMEM (HCT116 and MIA PaCa-2) culture media supplemented with 10% fetal bovine serum (FBS) and 100 U/mL penicillin and streptomycin at 37 °C in a 95% humidified incubator containing 5% CO2. The cytotoxic effect of the compounds was assessed using the MTT cell viability assay. Briefly, 3 × 10^3 cells/well were grown in 96-well plates for 24 h. After treatment with desired concentration of respective compounds for 24 h or 48 h, the EZ-CYTOTOX (10 µM) reagent was added in each well and incubated for 90 min. The absorbance was measured at 450 nm wavelength using Skanlt software 5.0 (Thermo Scientific, Waltham, MA, USA) installed on a Multiskan GO (Thermo Scientific, Waltham, MA, USA) spectrophotometer. Each experiment was independently repeated three times (n = 12).

[4] = test system: HCT116 cells; assay: MTT cell viability assay; type: cell-based, human; conditions: for cytotoxic effect (cell viability): HCT116, 20 and 40 µM, 24 h, Figure 2B
Description: as §1

[5] = target: T1, SK1 enzyme (Homo sapiens, UniProt Q9NYA1); assay: SK activity assay (Adapta screening system); type: biochemical; conditions: 20 μM, Figure 5
T1 construct: purchased Thermo Fisher Scientific
T1 sequence (Q9NYA1 whole entry): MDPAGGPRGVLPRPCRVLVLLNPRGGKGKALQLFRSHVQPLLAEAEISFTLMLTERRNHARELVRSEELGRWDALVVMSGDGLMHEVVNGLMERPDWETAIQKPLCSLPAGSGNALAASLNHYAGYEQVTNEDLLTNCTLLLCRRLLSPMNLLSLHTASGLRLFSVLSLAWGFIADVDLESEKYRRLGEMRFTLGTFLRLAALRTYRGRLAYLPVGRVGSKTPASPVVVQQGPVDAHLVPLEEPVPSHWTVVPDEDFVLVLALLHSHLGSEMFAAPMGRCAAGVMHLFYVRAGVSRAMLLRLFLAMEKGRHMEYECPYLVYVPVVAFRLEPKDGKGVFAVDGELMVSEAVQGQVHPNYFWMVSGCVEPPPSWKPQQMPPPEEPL
Description: The effect of compounds in sphingosine kinase activity was examined using the […] screening system (Thermo Fisher Scientific System, Waltham, MA, USA). The kinase inhibition ability of compounds 1-11 along with RB005 was measured with final concentration of 20 μM. […] The data were presented as percentage inhibition of SK enzyme by individual compounds.

[6] = test system: HT29 cells; assay: Annexin V-FITC/PI staining, flow cytometry; type: cell-based, human; conditions: HT29, 10 and/or 20 µM, 24 h
Description: After treating HT29 and HCT116 cells with compounds 10, 11, 13 and FTY720 according to the manufacturer’s instruction, the annexin V and PI staining technique was employed to determine apoptosis in the cells. Briefly, cells (2.5 × 10^5 cells/well) were seeded in 12-well plates and treated with 10 and/or 20 µM of compounds for 24 h. Cells were collected using trypsin-EDTA and stained with annexin V-FITC dye for 15 min at room temperature, followed by PI staining for 20 min and analyzed by flow cytometer (MACSQuant Analyzer 10; Miltenyi Biotec, Bergisch Gladbach, Germany). The data was analyzed using MACSQuantify^TM version 2.8 software (Miltenyi Biotec, Bergisch Gladbach, Germany) and presented as early apoptosis, late apoptosis, or combined apoptosis percentage. Each experiment was repeated three times independently (n = 6).

[7] = test system: AKT and ERK phosphorylation in HCT116 cells; assay: Western blotting of pAKT and pERK; type: cell-based, human; conditions: HCT116, 20 µM
Description: The cell lysate was prepared after successive treatment using mammalian protein extraction buffer (Organic buffer + 10 mM NaCl + detergent pH 7.5) mixed with 1% protease/phosphatase inhibitor cocktail; protein was quantified with BCA assay, boiled at 95 °C for 10 min by adding sample loading buffer, separated using SDS-PAGE, and transferred into methanol-activated PVDF membrane. Primary antibodies were probed overnight in PVDF membrane at 4 °C and […] with subsequent HRP anti-mouse and anti-rabbit secondary antibodies at room temperature. Then, membranes were washed with TBST buffer, and images were detected by Amersham Imager 680 (GE Healthcare; Leiden, WZ, The Netherlands) using ECL solution. Band intensities were analyzed and quantified using Image J software (version 1.53i).

[8] = target: T2, PP2A in HCT116 cells (Homo sapiens, UniProt P67775); assay: PP2A activity assay (immunoprecipitation kit); type: cell-based; conditions: for PP2A activity (activation): HCT116, 20 µM, 24 h
T2 construct: endogenous in cells; host or cells: HCT116
T2 sequence (P67775 whole entry): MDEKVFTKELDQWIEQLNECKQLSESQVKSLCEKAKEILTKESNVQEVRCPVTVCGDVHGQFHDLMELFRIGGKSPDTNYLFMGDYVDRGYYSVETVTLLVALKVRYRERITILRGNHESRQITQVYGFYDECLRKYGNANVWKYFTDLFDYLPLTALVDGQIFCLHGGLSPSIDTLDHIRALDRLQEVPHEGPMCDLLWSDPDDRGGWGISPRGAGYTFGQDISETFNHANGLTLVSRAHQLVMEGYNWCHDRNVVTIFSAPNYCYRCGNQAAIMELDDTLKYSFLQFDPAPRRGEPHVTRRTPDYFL
Description: The activity of PP2A was measured by using the PP2A kit according to the manufacturer’s instruction. The cell lysate was incubated with anti PP2A, C subunit antibody, and protein A agarose slurry for 2 h at 4 °C. The phosphopeptide solution (60 µL) was mixed and incubated at 30 °C for 10 min in a shaker. After a brief centrifuge, a 25 µL sample was liquated in ½ volume microplate and 100 µL malachite green phosphate detection working solution was added. After color development, absorbance was taken at 650 nm in a Multiskan GO microplate reader. A phosphate standard curve was constructed using phosphate standard, and results were calculated using this standard curve. This experiment was repeated three times (n = 6).

[9] = target: CYP2C19 (Homo sapiens, UniProt P33261); assay: Inhibition of CYP enzymes activity, human liver microsomes; conditions: human liver microsomes 0.25 mg/mL, 10 μM, S-mephenytoin substrate
Sequence of CYP2C19 (P33261 whole entry): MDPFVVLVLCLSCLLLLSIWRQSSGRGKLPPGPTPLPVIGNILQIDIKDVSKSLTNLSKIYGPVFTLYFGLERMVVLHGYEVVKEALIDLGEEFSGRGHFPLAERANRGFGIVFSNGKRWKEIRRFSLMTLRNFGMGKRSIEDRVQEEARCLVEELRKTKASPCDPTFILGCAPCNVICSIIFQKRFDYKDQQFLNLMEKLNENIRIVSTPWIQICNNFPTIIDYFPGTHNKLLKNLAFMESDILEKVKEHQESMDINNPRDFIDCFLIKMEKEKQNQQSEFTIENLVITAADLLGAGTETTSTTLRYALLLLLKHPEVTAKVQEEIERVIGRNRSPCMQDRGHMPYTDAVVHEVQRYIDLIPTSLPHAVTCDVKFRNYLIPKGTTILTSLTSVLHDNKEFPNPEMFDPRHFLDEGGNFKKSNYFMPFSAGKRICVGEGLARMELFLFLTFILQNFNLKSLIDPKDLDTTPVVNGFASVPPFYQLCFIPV

[10] = target: CYP2C9 (Homo sapiens, UniProt P11712); assay: as above; conditions: human liver microsomes 0.25 mg/mL, 10 μM, diclofenac substrate
Sequence of CYP2C9 (P11712 whole entry): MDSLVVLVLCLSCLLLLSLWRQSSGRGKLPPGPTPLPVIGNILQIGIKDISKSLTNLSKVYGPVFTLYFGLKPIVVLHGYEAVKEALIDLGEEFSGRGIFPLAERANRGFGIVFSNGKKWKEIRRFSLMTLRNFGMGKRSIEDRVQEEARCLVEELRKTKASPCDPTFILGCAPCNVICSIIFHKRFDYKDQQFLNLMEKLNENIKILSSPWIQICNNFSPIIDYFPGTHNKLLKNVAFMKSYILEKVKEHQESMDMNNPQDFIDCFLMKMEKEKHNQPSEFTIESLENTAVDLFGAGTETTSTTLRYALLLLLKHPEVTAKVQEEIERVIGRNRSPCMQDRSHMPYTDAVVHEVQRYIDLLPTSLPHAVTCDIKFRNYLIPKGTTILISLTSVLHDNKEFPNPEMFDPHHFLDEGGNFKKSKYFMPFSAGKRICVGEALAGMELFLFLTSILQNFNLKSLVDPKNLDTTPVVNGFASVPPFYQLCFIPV

[11] = target: T3, CYP1A2 (Homo sapiens, UniProt P05177); assay: as above; conditions: human liver microsomes 0.25 mg/mL, 10 μM, phenacetin substrate
T3 sequence (P05177 1-516): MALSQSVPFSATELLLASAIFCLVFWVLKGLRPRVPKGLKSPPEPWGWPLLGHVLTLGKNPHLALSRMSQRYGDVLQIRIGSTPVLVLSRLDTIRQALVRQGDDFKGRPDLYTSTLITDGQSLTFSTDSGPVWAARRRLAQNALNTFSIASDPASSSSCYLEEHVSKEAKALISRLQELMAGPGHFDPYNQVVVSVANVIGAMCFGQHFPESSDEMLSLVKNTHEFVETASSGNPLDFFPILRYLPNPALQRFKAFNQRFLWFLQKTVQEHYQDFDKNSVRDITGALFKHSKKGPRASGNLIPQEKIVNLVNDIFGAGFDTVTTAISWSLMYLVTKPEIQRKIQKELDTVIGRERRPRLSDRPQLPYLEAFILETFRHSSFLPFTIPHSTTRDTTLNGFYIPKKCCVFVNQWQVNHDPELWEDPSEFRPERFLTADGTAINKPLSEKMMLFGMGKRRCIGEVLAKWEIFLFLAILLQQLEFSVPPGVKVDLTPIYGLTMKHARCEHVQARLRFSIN

[12] = In vitro metabolic stability in liver microsomes; type: in vitro ADME, mouse
[13] = target: CYP2D6 (Homo sapiens, UniProt P10635); assay: Inhibition of CYP enzymes activity, human liver microsomes; conditions: human liver microsomes 0.25 mg/mL, 10 μM, dextromethorphan substrate
Sequence of CYP2D6 (P10635 whole entry): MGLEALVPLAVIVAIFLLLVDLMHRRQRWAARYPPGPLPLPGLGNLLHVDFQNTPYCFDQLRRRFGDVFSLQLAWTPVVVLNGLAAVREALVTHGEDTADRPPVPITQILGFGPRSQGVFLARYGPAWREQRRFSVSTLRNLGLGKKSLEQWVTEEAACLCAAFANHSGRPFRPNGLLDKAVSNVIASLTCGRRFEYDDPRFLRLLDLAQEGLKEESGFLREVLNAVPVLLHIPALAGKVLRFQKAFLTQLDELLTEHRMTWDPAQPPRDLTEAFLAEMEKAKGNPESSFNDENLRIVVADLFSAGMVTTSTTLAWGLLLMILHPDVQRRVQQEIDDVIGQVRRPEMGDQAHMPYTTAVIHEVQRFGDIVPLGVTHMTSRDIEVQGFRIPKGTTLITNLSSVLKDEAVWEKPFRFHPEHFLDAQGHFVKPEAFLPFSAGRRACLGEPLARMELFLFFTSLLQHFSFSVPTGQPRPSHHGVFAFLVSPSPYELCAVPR

[14] = In vitro metabolic stability in liver microsomes
[15] = In vitro metabolic stability in liver microsomes; type: in vitro ADME, rat
[16] = % remaining after 30 min, NADPH

Structure (SMILES): O=C(NCc1ccncc1)C12CC3CC(C1)CC(c1ccc(Cl)cc1)(C3)C2 [ABC294640]
IC50 [1]: > 100 µM | IC50 [2]: ~60 µM

SK1 inhibitory effect [5]: highest SK1 inhibitory effect
Structure (SMILES): CCCCCCCOc1ccc(CCN2CCC[C@@H]2CO)cc1 [Compound 1, (R)-(1-(4-(Heptyloxy)phenethyl)pyrrolidin-2-yl)methanol]
cytotoxic effect (cell viability) [3]: more cytotoxic than RB005 and 5-FU | cytotoxic effect (cell viability) [4]: significant cytotoxic effects in both 20 and 40 µM concentrations

Structure (SMILES): CCCCCCCOc1ccc(CCN2CCCCC2)cc1 [Compound 2, 1-(4-(Heptyloxy)phenethyl)piperidine]
cytotoxic effect (cell viability) [3]: more cytotoxic than RB005 and 5-FU | cytotoxic effect (cell viability) [4]: significant cytotoxic effects in both 20 and 40 µM concentrations

Structure (SMILES): CCCCCCCOc1ccc(CCN2CCC[C@H]2CO)cc1 [Compound 5, (S)-(1-(4-(Heptyloxy)phenethyl)pyrrolidin-2-yl)methanol]
cytotoxic effect (cell viability) [4]: only 40 µM concentration of compounds 3, 5 and 9 shows significant cytotoxic effect

Structure (SMILES): CCCCCCCOc1ccc(CCN2CCC(CO)CC2)cc1 [Compound 6, (1-(4-(Heptyloxy)phenethyl)piperidin-4-yl)methanol]
cytotoxic effect (cell viability) [3]: more cytotoxic than RB005 and 5-FU | cytotoxic effect (cell viability) [4]: significant cytotoxic effects in both 20 and 40 µM concentrations

Structure (SMILES): CCCCCCCOc1ccc(CCN2CCC(C)CC2)cc1 [Compound 7, 1-(4-(Heptyloxy)phenethyl)-4-methylpiperidine]
cytotoxic effect (cell viability) [4]: significant cytotoxic effects in both 20 and 40 µM concentrations

Structure (SMILES): CCCCCCCOc1ccc(CCN2CCCC(CO)C2)cc1 (stereo not shown) [Compound 8, (1-(4-(Heptyloxy)phenethyl)piperidin-3-yl)methanol]
cytotoxic effect (cell viability) [3]: more cytotoxic than RB005 and 5-FU | cytotoxic effect (cell viability) [4]: significant cytotoxic effects in both 20 and 40 µM concentrations

Structure (SMILES): CCCCCCCOc1ccc(CCN2CCNCC2)cc1 [Compound 9, 1-(4-(Heptyloxy)phenethyl)piperazine]
cytotoxic effect (cell viability) [3]: more cytotoxic than RB005 and 5-FU | cytotoxic effect (cell viability) [4]: only 40 µM concentration of compounds 3, 5 and 9 shows significant cytotoxic effect

selectivity to SK1 (over SK2) [5]: more selectivity than RB005
Structure (SMILES): O=S(=O)(Oc1ccc(CCN2CCC[C@@H]2CO)cc1)c1ccccc1 [Compound 11, (R)-4-(2-(2-(Hydroxymethyl)pyrrolidin-1-yl)ethyl)phenyl benzenesulfonate]
apoptosis (annexin V assay) [6]: did not significantly induce apoptosis | phosphorylation of AKT and ERK [7]: did not decrease phosphorylation of AKT and ERK | PP2A activity (activation) [8]: no effect on PP2A activation; also recorded: did not increase PP2A activity | SK1 inhibitory effect [5]: three-fold higher SK1 inhibitory effect than RB005

selectivity to SK1 (over SK2) [5]: more selectivity than RB005
Structure (SMILES): O=S(=O)(Oc1ccc(CCN2CCC(O)CC2)cc1)c1ccccc1 [Compound 13, 4-(2-(4-Hydroxypiperidin-1-yl)ethyl)phenyl benzenesulfonate]
apoptosis (annexin V assay) [6]: did not significantly induce apoptosis | phosphorylation of AKT and ERK [7]: did not decrease phosphorylation of AKT and ERK | PP2A activity (activation) [8]: no effect on PP2A activation; also recorded: did not increase PP2A activity

Structure (SMILES): CCCCOc1ccc(CCC=C2SC(=O)N(CCN)C2=O)cc1 [Compound K145]
IC50 [1]: > 10 µM | IC50 [2]: 4.3 µM

Structure (SMILES): CC(=O)N1CCN(c2ccc(OCC3COC(Cn4ccnc4)(c4ccc(Cl)cc4Cl)O3)cc2)CC1 (stereo not shown) [Ketoconazole]
CYP2C19 activity (% of control activity) [9]: >100% | CYP2C9 activity (% of control activity) [10]: >100% | CYP1A2 activity (% of control activity) [11]: >100%

Structure (SMILES): Cc1cc(CS(=O)(=O)c2ccccc2)cc(OCc2ccc(CN3CCC[C@@H]3CO)cc2)c1 [PF-543]
liver microsomal stability, Mouse (%) [12, 16]: 6.5% | liver microsomal stability (in words) ([12]; mouse): unstable | CYP2D6 activity (% of control activity) [13]: 63.9% | liver microsomal stability, Human (%) ([14]; % remaining after 30 min, 0.5 mg/mL microsomes, NADPH): 13.5% | liver microsomal stability (in words) ([14]; human): unstable | liver microsomal stability, Rat (%) [15, 16]: 8.1% | liver microsomal stability (in words) ([15]; rat): unstable | CYP1A2 activity (% of control activity) [11]: 80.9%

Structure (SMILES): CCCCCCCCc1ccc(CCN2CCC(O)CC2)cc1 [RB005, reference compound]
cytotoxic effect, comparison ([4]; HCT116, 10, 20 and 40 µM, Supplementary Figure S1C): higher than compounds 11, 13, and PF-543 | PP2A activity increase ([8]; HCT116, 24 h, 20 µM of compounds 10, 11 and 13, vs nontreated control cells): 1.59 fold

Structure (SMILES): CCCCCCCCOc1ccc(-c2noc([C@@H]3CCCN3C(=N)N)n2)cc1C(F)(F)F [SLM6041434]
Ki ([2]; known compound): 0.4 to 1.1 µM

— publication PMC8779255, “Determining the Anticancer Activity of Sphingosine Kinase Inhibitors Containing Heteroatoms in Their Tail Structure” (Pharmaceutics, 2022)
